According to patent US8569315B2, “Synergistic antimicrobial composition” (priority 2009, dated 2013):

Experiments:
Format in all cases: cell-based
Aureobasidium pullulans = experiment: Fungal efficacy testing, modified ASTM 5590, paint film; conditions: for Total conc: total biocide in paint chosen as minimum inhibitory concentration, dry film; for Total conc / % inhibition: 3 weeks
Method: (§1) Sample preparation: Samples of white acrylic latex paint free of biocides were prepared in 50 ml aliquots. Each biocide was post added to give the necessary active ingredient concentration in the paint. The total biocides concentrations tested were 750, 1500, 2500 and 5000 ppm. After biocides addition, each sample was hand mixed for a minimum of 30 sec, followed by a 3 min run on the paint shaker (RED DEVIL). Each of the paint samples as well as a control sample (containing no biocide) were used to prepare films on black plastic-vinyl chloride/acetate copolymer panels (LENETA, Mahwah, N.J.) using a 3 mil bird bar applicator. The panels were thoroughly dried for 5 days avoiding direct exposure to sunlight. Square discs (15 mm^2) were cut out from each panel and were used as the substrate for fungal and algal efficacy tests. This sample size allowed for an agar border when the sample disc was placed into the well of the test plate.
(§2) The appropriate media (BOLD'S 3N for Chlorophytes, BG-11 for Cyanobacteria, and PDA for fungi) were used to support microbial growth. The test plates were maintained at room temp (25° C.-26° C.), in a cycled light-dark environment, for 3 weeks for algae. Plates for fungal challenge tests were maintained at 30 C for three weeks. At the end of incubation period the samples were scored for percent area covered by visible microbial growth.
(§3) ASTM 5590 is a standard accelerated test method for determining resistance of various coatings (including paints) to fungal defacement. To accommodate for high-throughput screening, this method was scaled down from petri plates to 12-well plates. To set up the test, an agar plug was placed at the bottom of each well of the sterile 12-well plate. A single coupon was placed with a pair of sterile forceps at the center of the agar plug (on top) with the painted surface facing upwards. Each well was inoculated with 150 μl of organism (1×10^6 cfu/ml) making sure that the whole surface (paint film as well as the agar surrounding it) was evenly covered. The plates were incubated at 30° C. in presence of moisture, for a period of three weeks. The total percent area covered was evaluated and recorded at the end of each week after the 2nd week and recorded in increments of 5%.
(§4) The SI is calculated based on F. C. Kull et.

Alternaria alternata = experiment: as above; conditions: for Total conc: total biocide in paint chosen as minimum inhibitory concentration, dry film; for Total conc / % inhibition: 3 weeks
Method: as §1, §2, §3, §4

Cladosporium herbarum = experiment: as above; conditions: for Total conc: total biocide in paint chosen as minimum inhibitory concentration, dry film; for Total conc / % inhibition: 3 weeks
Method: as §1, §2, §3, §4

Trichoderma viride = experiment: as above; conditions: for Total conc: total biocide in paint chosen as minimum inhibitory concentration, dry film; for Total conc / % inhibition: 3 weeks
Method: as §1, §2, §3, §4

Aspergillus niger = experiment: as above; conditions: for Total conc: total biocide in paint chosen as minimum inhibitory concentration, dry film; for Total conc / % inhibition: 3 weeks; for % inhibition: total conc 1500 ppm in paint
Method: as §1, §2, §3, §4

Penicillium funiculosum = experiment: as above; conditions: for Total conc: total biocide in paint chosen as minimum inhibitory concentration, dry film; for Total conc / % inhibition: 3 weeks
Method: as §1, §2, §3, §4

[1] = system: Trentepohlia aurea + Trentepohlia odorata; experiment: Algal efficacy testing, modified ASTM 5589, paint film; conditions: for Total conc: total biocide in paint chosen as minimum inhibitory concentration, dry film; for Total conc / % inhibition: 3 weeks; for % inhibition: total conc 1500 ppm in paint
Method: as §1, §2
(§5) ASTM 5589 is a standard accelerated test method for determining resistance of various coatings (including paints) to algal defacement. To accommodate for high-throughput screening, this method was scaled down from petri plates to 12-well plates. A single coupon was placed with a pair of sterile forceps at the center of the agar plug (on top) with the painted surface facing upwards. Each well was inoculated with 150 μl of organism (1×10^6 cfu/ml) making sure that the whole surface (paint film as well as the agar surrounding it) was evenly covered. The plates were incubated at room temp (25° C.-26° C.) with cyclic exposure to light (OTT-Lite model # OTL4012P, 40 Watt, 26 KLumen) and dark phases, for a period of three weeks. The total area covered was evaluated at the end of each week after the second week according to percent area covered in 5% increments. While rating the plates, notations were made for zones of inhibition.
as §4

Calothrix parientina = experiment: as above; conditions: for Total conc: total biocide in paint chosen as minimum inhibitory concentration, dry film; for Total conc / % inhibition: 3 weeks
Method: as §1, §2, §5, §4

[2] = system: Chlorella sp. UTEX + Chlorella kessleri; experiment: as above; conditions: for Total conc: total biocide in paint chosen as minimum inhibitory concentration, dry film; for Total conc / % inhibition: 3 weeks
Method: as §1, §2, §5, §4

Oscillatoria sp. = experiment: as above; conditions: for Total conc: total biocide in paint chosen as minimum inhibitory concentration, dry film; for Total conc / % inhibition: 3 weeks
Method: as §1, §2, §5, §4

Gleocapsa sp. = experiment: as above; conditions: for Total conc: total biocide in paint chosen as minimum inhibitory concentration, dry film; for Total conc / % inhibition: 3 weeks
Method: as §1, §2, §5, §4

Nostoc commune = experiment: as above; conditions: for Total conc: total biocide in paint chosen as minimum inhibitory concentration, dry film; for Total conc / % inhibition: 3 weeks
Method: as §1, §2, §5, §4

Stachybotris chartarum = experiment: Fungal efficacy testing, modified ASTM 5590, paint film; conditions: for Total conc: total biocide in paint chosen as minimum inhibitory concentration, dry film
Method: as §1, §2, §3, §4

[3] = total conc 1500 ppm in paint, Table 4
[4] = total conc 2500 ppm in paint, Table 4
[5] = total conc 750 ppm in paint, Table 4
[6] = total conc 750 ppm in paint, Table 3
[7] = total conc 1500 ppm in paint, Table 3
[8] = total conc 2500 ppm in paint, Table 3
[9] = total conc 1500 ppm in paint, Table 2
[10] = total conc 1500 ppm in paint, Table 1

With CCOc1nc(F)cc2nc(S(=O)(=O)Nc3c(Cl)cccc3Cl)nn12 [Diclosulam] as the compound, how does the Total conc (Aureobasidium pullulans; Table 4) read?
The Total conc was 1500 ppm.

And the “% inhibition” value (Aureobasidium pullulans; [3])?
The value was 35%.

What about the Total conc (Alternaria alternata; Table 4) of the same compound?
Its Total conc is 2500 ppm.

And the “% inhibition” value (Alternaria alternata; [4])?
Its value is 0%.

What about the Total conc (Cladosporium herbarum; Table 4) of the same compound?
The Total conc was 2500 ppm.

What about the “% inhibition” value (Cladosporium herbarum; [4]) of the same compound?
Its value is 80%.

And the Total conc (Trichoderma viride; Table 4)?
The Total conc was 750 ppm.

And the “% inhibition” value (Trichoderma viride; [5])?
The value was 80%.

And the Total conc (Aspergillus niger; Table 4)?
Its Total conc is 1500 ppm.

What about the “% inhibition” value (Aspergillus niger; Table 4) of the same compound?
Its value is 80%.

And the Total conc (Penicillium funiculosum; Table 4)?
Its Total conc is 2500 ppm.

What about the “% inhibition” value (Penicillium funiculosum; [4]) of the same compound?
The value was 45%.

And the Total conc ([1]; Table 3)?
Its Total conc is 1500 ppm.

What about the “% inhibition” value ([1]; Table 3) of the same compound?
Its value is 80%.

And the Total conc (Calothrix parientina; Table 3)?
The Total conc was 750 ppm.

And the “% inhibition” value (Calothrix parientina; [6])?
The value was 80%.

What about the Total conc ([2]; Table 3) of the same compound?
The Total conc was 750 ppm.

What about the “% inhibition” value [2, 6] of the same compound?
The value was 75%.

What about the Total conc (Oscillatoria sp.; Table 3) of the same compound?
Its Total conc is 750 ppm.

And the “% inhibition” value (Oscillatoria sp.; [6])?
The value was 80%.

And the Total conc (Gleocapsa sp.; Table 3)?
The Total conc was 1500 ppm.

What about the “% inhibition” value (Gleocapsa sp.; [7]) of the same compound?
Its value is 60%.

What about the Total conc (Nostoc commune; Table 3) of the same compound?
The Total conc was 2500 ppm.

What about the “% inhibition” value (Nostoc commune; [8]) of the same compound?
Its value is 75%.

Cc1ccn2nc(S(=O)(=O)Nc3c(F)cccc3F)nc2n1 [Flumetsulam] was tested. Which inhibition at 2500 ppm (Stachybotris chartarum; 504 h) did it give?
The inhibition at 2500 ppm was 70%.

And the Total conc (Stachybotris chartarum; 3 weeks, Table 2)?
The Total conc was 2500 ppm.

And the inhibition at 2500 ppm (Aureobasidium pullulans; Aureobasidium pullulans, 504 h)?
The inhibition at 2500 ppm was 90%.

What about the Total conc (Aureobasidium pullulans; Table 2) of the same compound?
The Total conc was 2500 ppm.

And the inhibition at 2500 ppm (Alternaria alternata; Alternaria alternata, 504 h)?
Its inhibition at 2500 ppm is 90%.

And the Total conc (Alternaria alternata; Table 2)?
The Total conc was 2500 ppm.

And the inhibition at 1500 ppm (Cladosporium herbarum; Cladosporium herbarum, 504 h)?
Its inhibition at 1500 ppm is 85%.

What about the Total conc (Cladosporium herbarum; Table 2) of the same compound?
Its Total conc is 1500 ppm.

And the inhibition at 2500 ppm (Trichoderma viride; Trichoderma viride, 504 h)?
The inhibition at 2500 ppm was 70%.

And the Total conc (Trichoderma viride; Table 2)?
Its Total conc is 2500 ppm.

What about the inhibition at 2500 ppm (Aspergillus niger; Aspergillus niger, 504 h) of the same compound?
The inhibition at 2500 ppm was 40%.

What about the Total conc (Aspergillus niger; Table 2) of the same compound?
The Total conc was 2500 ppm.

And the inhibition at 1500 ppm (Penicillium funiculosum; Talaromyces funiculosus, 504 h)?
Its inhibition at 1500 ppm is 80%.

And the Total conc (Penicillium funiculosum; Table 2)?
Its Total conc is 1500 ppm.

What about the inhibition at 1500 ppm ([1]; 504 h) of the same compound?
The inhibition at 1500 ppm was 85%.

What about the Total conc ([1]; Table 1) of the same compound?
The Total conc was 1500 ppm.

What about the inhibition at 2500 ppm (Calothrix parientina; 504 h) of the same compound?
Its inhibition at 2500 ppm is 90%.

What about the Total conc (Calothrix parientina; Table 1) of the same compound?
Its Total conc is 2500 ppm.

And the inhibition at 2500 ppm ([2]; 504 h)?
The inhibition at 2500 ppm was 80%.

What about the Total conc ([2]; Table 1) of the same compound?
The Total conc was 2500 ppm.

What about the inhibition at 1500 ppm (Oscillatoria sp.; 504 h) of the same compound?
The inhibition at 1500 ppm was 80%.

What about the Total conc (Oscillatoria sp.; Table 1) of the same compound?
The Total conc was 1500 ppm.

What about the inhibition at 1500 ppm (Gleocapsa sp.; 504 h) of the same compound?
Its inhibition at 1500 ppm is 90%.

And the Total conc (Gleocapsa sp.; Table 1)?
Its Total conc is 1500 ppm.

And the inhibition at 1500 ppm (Nostoc commune; Nostoc commune, 504 h)?
Its inhibition at 1500 ppm is 85%.

And the Total conc (Nostoc commune; Table 1)?
The Total conc was 1500 ppm.

Which results are given for CCCCNC(=O)OCC#CI [IPBC, 3-iodo-2-propynyl-butylcarbamate]?
Total conc (Stachybotris chartarum; 3 weeks, Table 2): 2500 ppm; % inhibition (Stachybotris chartarum; total conc 2500 ppm in paint, 3 weeks, Table 2): 65%; Total conc (Aureobasidium pullulans; Table 2): 1500 ppm; Total conc (Aureobasidium pullulans; Table 4): 750 ppm; % inhibition (Aureobasidium pullulans; [5]): 60%; % inhibition (Aureobasidium pullulans; [9]): 90%; Total conc (Alternaria alternata; Table 2): 1500 ppm; Total conc (Alternaria alternata; Table 4): 2500 ppm; % inhibition (Alternaria alternata; [9]): 85%; % inhibition (Alternaria alternata; [4]): 50%; Total conc (Cladosporium herbarum; Table 2): 1500 ppm; Total conc (Cladosporium herbarum; Table 4): 1500 ppm; % inhibition (Cladosporium herbarum; [9]): 90%; % inhibition (Cladosporium herbarum; [3]): 80%; Total conc (Trichoderma viride; Table 2): 1500 ppm; Total conc (Trichoderma viride; Table 4): 1500 ppm; % inhibition (Trichoderma viride; [9]): 75%; % inhibition (Trichoderma viride; [3]): 85%; Total conc (Aspergillus niger; Table 2): 1500 ppm; Total conc (Aspergillus niger; Table 4): 1500 ppm; % inhibition (Aspergillus niger; Table 2): 60%; % inhibition (Aspergillus niger; Table 4): 85%; Total conc (Penicillium funiculosum; Table 2): 1500 ppm; Total conc (Penicillium funiculosum; Table 4): 1500 ppm; % inhibition (Penicillium funiculosum; [9]): 90%; % inhibition (Penicillium funiculosum; [3]): 70%; Total conc ([1]; Table 1): 1500 ppm; Total conc ([1]; Table 3): 1500 ppm; % inhibition ([1]; Table 1): 80%; % inhibition ([1]; Table 3): 80%; Total conc (Calothrix parientina; Table 1): 1500 ppm; Total conc (Calothrix parientina; Table 3): 750 ppm; % inhibition (Calothrix parientina; [6]): 80%; % inhibition (Calothrix parientina; [10]): 80%; Total conc ([2]; Table 1): 2500 ppm; Total conc ([2]; Table 3): 2500 ppm; % inhibition ([2]; total conc 2500 ppm in paint, Table 1): 80%; % inhibition [2, 8]: 80%; Total conc (Oscillatoria sp.; Table 1): 1500 ppm; Total conc (Oscillatoria sp.; Table 3): 2500 ppm; % inhibition (Oscillatoria sp.; [10]): 80%; % inhibition (Oscillatoria sp.; [8]): 80%; Total conc (Gleocapsa sp.; Table 1): 750 ppm; Total conc (Gleocapsa sp.; Table 3): 2500 ppm; % inhibition (Gleocapsa sp.; total conc 750 ppm in paint, Table 1): 80%; % inhibition (Gleocapsa sp.; [8]): 50%; Total conc (Nostoc commune; Table 1): 1500 ppm; Total conc (Nostoc commune; Table 3): 1500 ppm; % inhibition (Nostoc commune; [10]): 80%; % inhibition (Nostoc commune; [7]): 80%
